# Test results taken from patent US20220409620A1, “REDUCING IMMUNOGENICITY TO PEGLOTICASE” (Horizon Pharma Rheumatology LLC, priority 2016, published 2022).
# Test system: adult patients with uncontrolled gout
# Test: Health Assessment Questionnaire (HAQ-DI, HAQ pain, HAQ health), open-label study
# Type: in vivo, human
# Set-up: key to HAQ-Health, Observed, Median / HAQ-Health, Change from Baseline, Median: 0-100 scale; 0 = very well, 100 = very poor health; key to HAQ-DI, Observed, Median / HAQ-DI, Change from Baseline, Median: HAQ-DI scale 0-3; 0 = no difficulty, 3 = unable to do
# Conditions: mITT Population
# Procedure: Quality-of-Life Assessment: The HAQ was administered at the Screening and Week −4 or week −6 (prior to the first dose of MTX) Visits during the MTX Run-in Period for the open-label and randomized studies, respectively; prior to pegloticase infusion at the Day 1 and Weeks 14, 24 and 36 Visits or at the Day 1 and weeks 6, 14, 20, 24, 30, 36, and 44 visits during the Pegloticase+IMM Period for the open-label and randomized studies, respectively; at the End of Pegloticase Infusions Visit (if applicable), the Week 52/End of Study/Early Termination Visit and the Post Treatment Periods 3 and 6 Month Follow-up Visits (open-label study). The HAQ-DI is a self-report functional status instrument that can be filled out by a subject in less than 5 minutes and requires 1 minute to score. The index measures disability over the past week by asking a total of 20 questions covering 8 domains of function: dressing and grooming, arising, eating, walking, hygiene, reach, grip, and usual activities. There are at least 2 questions in each domain and the 8 domains represent a comprehensive set of functional activities. The HAQ-DI is calculated by scoring the answer to each question in the HAQ from 0 to 3, with 0 representing the ability to do without any difficulty, and 3 representing inability to do. Any activity that requires assistance from another individual or requires the use of an assistive device raises a 0 or 1 score to a 2. The highest score for each of the 8 domains is summed (range from 0 to 24) and divided by 8 to yield, on a scale with 25 possible values, a Functional Disability Index with a range from 0 to 3. The disability index is based on the number of domains answered and is computed only if the subject completes answers to at least 6 domains. The HAQ pain scale asks subjects to record how much pain they have had in the past week on a scale of 0 to 100, where zero represents “no pain” and 100 represents “severe pain”. The HAQ health scale is a measure of overall health. Subjects are asked to rate how well they are doing on a score of 0 to 100, where zero represents “very well” and 100 represents “very poor” health.
# [1] = Early Termination Visit, Methotrexate Baseline
# [2] = Early Termination Visit, Pegloticase Baseline
# [3] = End of Pegloticase Infusions Visit, Methotrexate Baseline
# [4] = End of Pegloticase Infusions Visit, Pegloticase Baseline
substance,measurement,setting,value
pegloticase,"HAQ-DI, Change from Baseline, Mean (SD)","Day 1, Methotrexate Baseline",0.1 (0.27)
same,"HAQ-DI, Change from Baseline, Median","Day 1, Methotrexate Baseline",0.0
same,"HAQ-DI, Observed, Mean (SD)","Day 1, Methotrexate Baseline",0.8 (0.77)
same,"HAQ-DI, Observed, Median","Day 1, Methotrexate Baseline",0.5
same,"HAQ-Health, Change from Baseline, Mean (SD)","Day 1, Methotrexate Baseline",−8.8 (38.29)
same,"HAQ-Health, Change from Baseline, Median","Day 1, Methotrexate Baseline",10.0
same,"HAQ-Health, Observed, Mean (SD)","Day 1, Methotrexate Baseline",37.8 (27.06)
same,"HAQ-Health, Observed, Median","Day 1, Methotrexate Baseline",25.0
same,"HAQ-Pain, Change from Baseline, Mean (SD)","Day 1, Methotrexate Baseline",2.3 (19.93)
same,"HAQ-Pain, Change from Baseline, Median","Day 1, Methotrexate Baseline",0.0
same,"HAQ-Pain, Observed, Mean (SD)","Day 1, Methotrexate Baseline",42.5 (22.24)
same,"HAQ-Pain, Observed, Median","Day 1, Methotrexate Baseline",40.0
same,"HAQ-DI, Change from Baseline, Mean (SD)",[1],0.2 (0.90)
same,"HAQ-DI, Change from Baseline, Median",[1],−0.3
same,"HAQ-DI, Observed, Mean (SD)",[1],0.7 (0.51)
same,"HAQ-DI, Observed, Median",[1],0.6
same,"HAQ-Health, Change from Baseline, Mean (SD)",[1],−0.7 (16.77)
same,"HAQ-Health, Change from Baseline, Median",[1],8.0
same,"HAQ-Health, Observed, Mean (SD)",[1],28.3 (40.72)
same,"HAQ-Health, Observed, Median",[1],10.0
same,"HAQ-Pain, Change from Baseline, Mean (SD)",[1],19.0 (36.51)
same,"HAQ-Pain, Change from Baseline, Median",[1],7.0
same,"HAQ-Pain, Observed, Mean (SD)",[1],46.7 (40.41)
same,"HAQ-Pain, Observed, Median",[1],40.0
same,"HAQ-DI, Change from Baseline, Mean (SD)",[2],0.2 (0.56)
same,"HAQ-DI, Change from Baseline, Median",[2],0.1
same,"HAQ-DI, Observed, Mean (SD)",[2],0.7 (0.51)
same,"HAQ-DI, Observed, Median",[2],0.6
same,"HAQ-Health, Change from Baseline, Mean (SD)",[2],−11.7 (62.52)
same,"HAQ-Health, Change from Baseline, Median",[2],−10.0
same,"HAQ-Health, Observed, Mean (SD)",[2],28.3 (40.72)
same,"HAQ-Health, Observed, Median",[2],10.0
same,"HAQ-Pain, Change from Baseline, Mean (SD)",[2],0.0 (45.83)
same,"HAQ-Pain, Change from Baseline, Median",[2],−10.0
same,"HAQ-Pain, Observed, Mean (SD)",[2],46.7 (40.41)
same,"HAQ-Pain, Observed, Median",[2],40.0
same,"HAQ-DI, Change from Baseline, Mean (SD)",[3],−0.1 (0.35)
same,"HAQ-DI, Change from Baseline, Median",[3],−0.1
same,"HAQ-DI, Observed, Mean (SD)",[3],0.1 (0.18)
same,"HAQ-DI, Observed, Median",[3],0.1
same,"HAQ-Health, Change from Baseline, Mean (SD)",[3],−80.0 (0.00)
same,"HAQ-Health, Change from Baseline, Median",[3],−80.0
same,"HAQ-Health, Observed, Mean (SD)",[3],0.0 (0.00)
same,"HAQ-Health, Observed, Median",[3],0.0
same,"HAQ-Pain, Change from Baseline, Mean (SD)",[3],2.5 (74.25)
same,"HAQ-Pain, Change from Baseline, Median",[3],2.5
same,"HAQ-Pain, Observed, Mean (SD)",[3],40.0 (56.57)
same,"HAQ-Pain, Observed, Median",[3],40.0
same,"HAQ-DI, Change from Baseline, Mean (SD)",[4],−0.1 (0.35)
same,"HAQ-DI, Change from Baseline, Median",[4],−0.1
same,"HAQ-DI, Observed, Mean (SD)",[4],0.1 (0.18)
same,"HAQ-DI, Observed, Median",[4],0.1
same,"HAQ-Health, Change from Baseline, Mean (SD)",[4],−45.0 (49.50)
same,"HAQ-Health, Change from Baseline, Median",[4],−45.0
same,"HAQ-Health, Observed, Mean (SD)",[4],0.0 (0.00)
same,"HAQ-Health, Observed, Median",[4],0.0
same,"HAQ-Pain, Change from Baseline, Mean (SD)",[4],2.5 (74.25)
same,"HAQ-Pain, Change from Baseline, Median",[4],2.5
same,"HAQ-Pain, Observed, Mean (SD)",[4],40.0 (56.57)
same,"HAQ-Pain, Observed, Median",[4],40.0
same,"HAQ-DI, Change from Baseline, Mean (SD)","Week 14, Methotrexate Baseline",−0.2 (0.77)
same,"HAQ-DI, Change from Baseline, Median","Week 14, Methotrexate Baseline",0.0
same,"HAQ-DI, Observed, Mean (SD)","Week 14, Methotrexate Baseline",0.5 (0.41)
same,"HAQ-DI, Observed, Median","Week 14, Methotrexate Baseline",0.5
same,"HAQ-Health, Change from Baseline, Mean (SD)","Week 14, Methotrexate Baseline",−12.5 (36.79)
same,"HAQ-Health, Change from Baseline, Median","Week 14, Methotrexate Baseline",−5.0
same,"HAQ-Health, Observed, Mean (SD)","Week 14, Methotrexate Baseline",36.6 (33.87)
same,"HAQ-Health, Observed, Median","Week 14, Methotrexate Baseline",16.5
same,"HAQ-Pain, Change from Baseline, Mean (SD)","Week 14, Methotrexate Baseline",−13.9 (30.48)
same,"HAQ-Pain, Change from Baseline, Median","Week 14, Methotrexate Baseline",−12.5
same,"HAQ-Pain, Observed, Mean (SD)","Week 14, Methotrexate Baseline",27.1 (26.25)
same,"HAQ-Pain, Observed, Median","Week 14, Methotrexate Baseline",15.0
same,"HAQ-DI, Change from Baseline, Mean (SD)","Week 14, Pegloticase Baseline",−0.3 (0.80)
same,"HAQ-DI, Change from Baseline, Median","Week 14, Pegloticase Baseline",0.0
same,"HAQ-DI, Observed, Mean (SD)","Week 14, Pegloticase Baseline",0.5 (0.41)
same,"HAQ-DI, Observed, Median","Week 14, Pegloticase Baseline",0.5
same,"HAQ-Health, Change from Baseline, Mean (SD)","Week 14, Pegloticase Baseline",−4.3 (43.82)
same,"HAQ-Health, Change from Baseline, Median","Week 14, Pegloticase Baseline",−1.0
